# Reference: PMC11085544, “Anticholinesterase Activity of Methanolic Extract of Amorpha fruticosa Flowers and Isolation of Rotenoids and Putrescine and Spermidine Derivatives” (Plants, 2024)
# Columns and labels:
# Type in all cases: biochemical
# [1] = target: T1, AChE (acetylcholinesterase) (Electrophorus electricus, UniProt O42275); assay: Ellman colorimetric assay with electric eel AChE, % inhibition at […]; conditions: 100 µM
# [2] = target: T1, AChE (acetylcholinesterase); assay: Ellman colorimetric assay with electric eel AChE
# [3] = target: T2, BuChE (butyrylcholinesterase) (Equus caballus, UniProt P81908); assay: Ellman colorimetric assay with equine serum BuChE, % inhibition at […]
# T2 construct: gene BCHE
# T2 sequence (P81908 whole entry): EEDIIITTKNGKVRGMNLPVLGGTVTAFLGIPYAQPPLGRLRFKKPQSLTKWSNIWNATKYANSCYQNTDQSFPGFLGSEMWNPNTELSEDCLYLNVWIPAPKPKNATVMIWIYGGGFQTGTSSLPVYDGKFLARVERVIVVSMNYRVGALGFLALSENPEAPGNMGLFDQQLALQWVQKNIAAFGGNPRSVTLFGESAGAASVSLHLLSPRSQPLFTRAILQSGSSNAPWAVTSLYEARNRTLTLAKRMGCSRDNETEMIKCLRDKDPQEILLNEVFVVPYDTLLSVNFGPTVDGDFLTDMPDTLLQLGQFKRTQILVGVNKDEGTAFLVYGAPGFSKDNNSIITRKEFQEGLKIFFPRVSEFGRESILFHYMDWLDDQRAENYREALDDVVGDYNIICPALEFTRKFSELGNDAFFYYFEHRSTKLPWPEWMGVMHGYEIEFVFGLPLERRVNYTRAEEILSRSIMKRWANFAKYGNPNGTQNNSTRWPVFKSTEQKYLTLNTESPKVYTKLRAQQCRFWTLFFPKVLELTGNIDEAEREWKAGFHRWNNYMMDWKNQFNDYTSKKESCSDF
# T1 sequence (O42275 24-633): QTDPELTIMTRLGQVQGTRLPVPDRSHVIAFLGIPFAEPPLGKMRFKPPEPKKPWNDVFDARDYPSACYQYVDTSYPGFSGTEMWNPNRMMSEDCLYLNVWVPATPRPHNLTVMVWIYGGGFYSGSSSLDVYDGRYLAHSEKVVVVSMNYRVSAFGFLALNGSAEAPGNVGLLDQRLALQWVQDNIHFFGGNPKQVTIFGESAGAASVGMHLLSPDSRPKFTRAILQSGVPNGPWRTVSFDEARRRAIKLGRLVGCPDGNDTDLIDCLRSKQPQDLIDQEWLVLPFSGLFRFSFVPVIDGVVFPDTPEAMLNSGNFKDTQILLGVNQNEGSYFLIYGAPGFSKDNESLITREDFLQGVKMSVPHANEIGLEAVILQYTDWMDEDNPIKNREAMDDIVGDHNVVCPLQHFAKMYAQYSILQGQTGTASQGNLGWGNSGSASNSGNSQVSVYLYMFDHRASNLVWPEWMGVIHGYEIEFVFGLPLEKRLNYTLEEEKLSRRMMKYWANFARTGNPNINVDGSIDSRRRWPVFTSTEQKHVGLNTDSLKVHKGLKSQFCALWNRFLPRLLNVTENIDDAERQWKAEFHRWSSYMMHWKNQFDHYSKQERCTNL
Molecule,% Inhibition of AChE [1],IC50 [2],inhibition at 100 µM [3]
6-deoxyclitoriacetal [compound 7],37.9 ± 5.0,–,–
"O=C(/C=C/c1ccc(O)cc1)NCCCCN(CCCNC(=O)/C=C/c1ccc(O)cc1)C(=O)/C=C/c1ccc(O)cc1 [compound 5, N^1,N^5,N^10-(E)-tri-p-coumaroylspermidine]",–,102 ± 8.1 µM,43.8 ± 1.9%
"COC1=CC(=O)[C@]2(C=C1OC)OC[C@H]1Oc3c(ccc4c3C=CC(C)(C)O4)C(=O)[C@H]12 [compound 8, amorphispironone]",–,–,37.6 ± 2.7%
